Results from US11299487B2, “Compounds and compositions as modulators of TLR signaling” (Neuropore Therapies, Inc., priority 2019, dated 2022).

What was measured:
human TLR2 [1] = target: T1, human TLR2 (Homo sapiens, UniProt O60603); experiment: HEK-Blue hTLR2 antagonism assay (SEAP reporter) with agonist Pam2CSK4 (TLR2/6 agonist); assay type: cell-based; settings: HEK-Blue hTLR2 cells, ~3×EC50 Pam2CSK4, 18 h, SEAP OD 655 nm, 8-point dilutions
T1 construct: host or cells: HEK-Blue hTLR2 (HEK-293)
T1 sequence (O60603 21-784): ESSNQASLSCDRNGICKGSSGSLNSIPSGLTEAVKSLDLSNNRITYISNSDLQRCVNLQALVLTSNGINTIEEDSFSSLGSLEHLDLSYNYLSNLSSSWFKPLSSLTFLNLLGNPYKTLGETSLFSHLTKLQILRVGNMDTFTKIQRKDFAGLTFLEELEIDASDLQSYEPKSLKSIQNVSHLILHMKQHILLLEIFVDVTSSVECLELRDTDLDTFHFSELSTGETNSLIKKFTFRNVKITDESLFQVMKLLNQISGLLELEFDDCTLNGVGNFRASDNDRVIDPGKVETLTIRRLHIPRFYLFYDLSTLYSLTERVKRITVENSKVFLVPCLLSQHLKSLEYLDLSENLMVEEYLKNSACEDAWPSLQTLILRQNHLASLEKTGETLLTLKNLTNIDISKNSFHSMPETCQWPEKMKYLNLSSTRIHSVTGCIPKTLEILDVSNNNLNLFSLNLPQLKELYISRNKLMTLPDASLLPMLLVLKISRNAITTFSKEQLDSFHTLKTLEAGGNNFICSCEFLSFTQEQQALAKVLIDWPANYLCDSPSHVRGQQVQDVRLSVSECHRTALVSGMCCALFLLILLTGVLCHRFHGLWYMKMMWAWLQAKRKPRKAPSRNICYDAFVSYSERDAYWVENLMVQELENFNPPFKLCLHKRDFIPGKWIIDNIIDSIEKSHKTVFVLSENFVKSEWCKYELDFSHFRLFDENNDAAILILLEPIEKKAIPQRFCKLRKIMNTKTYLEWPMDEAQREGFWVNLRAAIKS
Experimental: (§1) Synthetic diacylated lipoprotein (Pam2CSK4, TLR2/6 agonist) and synthetic triacylated lipoprotein (Pam3CSK4, TLR1/2 agonist) were obtained from InvivoGen and were dissolved in endotoxin-free water to a concentration 1 mg/mL, vortexed until complete solubilization, and stored in aliquots at −20° C. Prior to addition to cells, an aliquot of the dissolved ligand was vortexed shortly and then was diluted in medium to 25 ng/mL Pam2CSK4 or 1000 ng/mL Pam3CSK4.
(§2) Test compounds were solubilized fresh to 10-20 mM stocks in DMSO and sonicated for 5-10 minutes in a water bath sonicator. Serial dilutions were prepared in DMSO, and then diluted in medium. The final concentration of DMSO used in the assay was 1%.
(§3) HEK-Blue hTLR2 reporter cells (InvivoGen) are HEK-293 cells stably expressing both the human TLR2 gene and a secreted embryonic alkaline phosphatase (SEAP) reporter construct downstream of NFκB promotor sites. HEK-Blue hTLR2 reporters were cultured according to manufacturer's protocol using Dulbecco's Modified Eagle Medium (DMEM; Gibco) containing 1× GlutaMax (Gibco), 10% heat-inactivated Fetal Bovine Serum (Gibco), Pen-Strep (50 U/mL penicillin, 50 μg/mL streptomycin, Gibco), 100 μg/mL Normocin (InvivoGen), and the selective antibiotic, 1×HEK-Blue Selection (InvivoGen). Quanti-Blue reagent (InvivoGen) for detection and quantification of secreted alkaline phosphatase was dissolved in 100 mL of endotoxin-free water, warmed to 37° C. for 30 minutes and then filtered using a 0.2 μm membrane.
(§4) On day 1, 50 μL of each test compound dilution in duplicates or a vehicle control was added to each well of a 96-well plate followed by addition of 150 μL of HEK-Blue hTLR2 cell suspension (1×10^5 cells/well) and incubated at 37° C./5% CO2 for 2 h. Next, 50 μL of an approximate 3×EC50 concentration of each agonist (Pam2CSK4 or Pam3CSK4) was added to the wells containing test compounds or the vehicle control. The plates were then incubated at 37° C./5% CO2 for 18 h. For each assay run, non-treated HEK-Blue hTLR2 cells were treated with serial dilutions of agonists to determine EC50 values for the respective run.
(§5) On day 2, secreted alkaline phosphatase (SEAP) activity was detected in cell culture supernatants. In brief, 20 μL was collected from each well and transferred to a 96-well plate. Next, 200 μL of Quanti-Blue detection reagent was added to each well. Plates were incubated at room temperature for 15 min. and SEAP activity was assessed by spectrophotometer OD reading at 655 nm. […] IC50 values were calculated based on 8-point dilutions for each compound.

human TLR2 [2] = target: T1, human TLR2; experiment: HEK-Blue hTLR2 antagonism assay (SEAP reporter) with agonist Pam3CSK4 (TLR1/2 agonist); assay type: cell-based; settings: HEK-Blue hTLR2 cells, ~3×EC50 Pam3CSK4, 18 h, SEAP OD 655 nm, 8-point dilutions
Experimental: as §1, §2, §3, §4, §5

SMILES	IC50 (human TLR2 [1]; Table A) [µM]	IC50 (human TLR2 [2]; Table A) [µM]	IC50 (human TLR2 [1]; Table B) [µM]	IC50 (human TLR2 [2]; Table B) [µM]
O=Cc1cc(-c2cnn(-c3ccc(N4CCOCC4)cc3)c2)cc(F)c1O [Compound A21, 3-fluoro-2-hydroxy-5-(1-(4-morpholinophenyl)-1H-pyrazol-4-yl)benzaldehyde]	2.6	1.1	–	–
CC1(C)CN(c2ccc(NC(=O)c3cc(F)c(O)c(C=O)c3)cn2)c2ccc(F)cc21 [Compound B99, 3-fluoro-N-(6-(5-fluoro-3,3-dimethylindolin-1-yl)pyridin-3-yl)-5-formyl-4-hydroxybenzamide]	–	–	0.6	0.5
Oc1c(F)cc(-c2cnn(-c3ccc(N4CCCC4)cc3)c2)cc1C1OCCCO1 [Compound A34, 2-(1,3-dioxan-2-yl)-6-fluoro-4-(1-(4-(pyrrolidin-1-yl)phenyl)-1H-pyrazol-4-yl)phenol]	6.9	3.9	–	–
COc1cc(-c2cnn(-c3cccc(C(F)(F)F)c3)c2)cc(C=O)c1O [Compound A9, 2-hydroxy-3-methoxy-5-(1-(3-(trifluoromethyl)phenyl)-1H-pyrazol-4-yl)benzaldehyde]	3.8	5.1	–	–
O=Cc1cc(-c2cn(-c3cccc(N4CCCC4)c3)nn2)cc(F)c1O [Compound A45, 3-fluoro-2-hydroxy-5-(1-(3-(pyrrolidin-1-yl)phenyl)-1H-1,2,3-triazol-4-yl)benzaldehyde]	1.3	1.3	–	–
O=Cc1cc(-c2cnc(-c3ccc(N4CCCC4)nc3)s2)cc(F)c1O [Compound A102, 3-fluoro-2-hydroxy-5-(2-(6-(pyrrolidin-1-yl)pyridin-3-yl)thiazol-5-yl)benzaldehyde]	1.9	1	–	–
O=Cc1cc(NC(=O)c2ccccc2)cc(F)c1O [Compound B9, N-(3-fluoro-5-formyl-4-hydroxyphenyl)benzamide]	–	–	8.1	6.8
O=Cc1cc(C(=O)Nc2cccc(N3CCCCC3)c2)cc(F)c1O [Compound B72, 3-fluoro-5-formyl-4-hydroxy-N-(3-(piperidin-1-yl)phenyl)benzamide]	–	–	4.6	2.4
CC1(C)CCN(c2ccc(-c3nsc(-c4cc(F)c(O)c(C=O)c4)n3)cc2)C1 [Compound A100, 5-(3-(4-(3,3-dimethylpyrrolidin-1-yl)phenyl)-1,2,4-thiadiazol-5-yl)-3-fluoro-2-hydroxybenzaldehyde]	1.4	0.6	–	–
O=Cc1cc(C#Cc2ccc(N3CCCCC3)cc2)cc(F)c1O [Compound B2, 3-fluoro-2-hydroxy-5-((4-(piperidin-1-yl)phenyl)ethynyl)benzaldehyde]	–	–	0.5	0.3
O=Cc1cc(-c2cnn(-c3ccccc3)c2)cc(F)c1O [Compound A11, 3-fluoro-2-hydroxy-5-(1-phenyl-1H-pyrazol-4-yl)benzaldehyde]	2.3	2	–	–
CN1CCN(/N=C/c2cc(-c3cnn(-c4ccc(N5CCCC5)cc4)c3)cc(F)c2O)CC1 [Compound A35, (E)-2-fluoro-6-(((4-methylpiperazin-1-yl)imino)methyl)-4-(1-(4-(pyrrolidin-1-yl)phenyl)-1H-pyrazol-4-yl)phenol]	1.6	0.7	–	–
O=Cc1cc(C(=O)Nc2ccc(N3Cc4ccccc4C3)cc2)cc(F)c1O [Compound B81, 3-fluoro-5-formyl-4-hydroxy-N-(4-(isoindolin-2-yl)phenyl)benzamide]	–	–	1	0.5
O=Cc1cc(-c2cnc(-c3ccc(N4CCCC4)cc3)s2)ncc1O [Compound A112, 5-hydroxy-2-(2-(4-(pyrrolidin-1-yl)phenyl)thiazol-5-yl)isonicotinaldehyde]	0.3	0.2	–	–
O=Cc1cc(-c2cnc(-c3ccc(N4CCCCC4)nc3)s2)cc(F)c1O [Compound A127, 3-fluoro-2-hydroxy-5-(2-(6-(piperidin-1-yl)pyridin-3-yl)thiazol-5-yl)benzaldehyde]	1.2	0.7	–	–
O=Cc1cc(-c2cnc(-c3cnc(N4CCCC4)c(C(F)(F)F)c3)s2)cc(F)c1O [Compound A114, 3-fluoro-2-hydroxy-5-(2-(6-(pyrrolidin-1-yl)-5-(trifluoromethyl)pyridin-3-yl)thiazol-5-yl)benzaldehyde]	0.7	0.4	–	–
O=Cc1cc(C(=O)Nc2ccc(N3CCCCC3)cc2)cc(F)c1O [Compound B66, 3-fluoro-5-formyl-4-hydroxy-N-(4-(piperidin-1-yl)phenyl)benzamide]	–	–	1.8	1
COc1ccc(Cn2cc(-c3cc(C=O)c(O)c(OC)c3)cn2)cc1 [Compound A10, 2-hydroxy-3-methoxy-5-(1-(4-methoxybenzyl)-1H-pyrazol-4-yl)benzaldehyde]	5.2	5.2	–	–
O=Cc1cc(-c2ncc(-c3ccccc3)o2)cc(F)c1O [Compound A89, 3-fluoro-2-hydroxy-5-(5-phenyloxazol-2-yl)benzaldehyde]	> 100	> 100	–	–
O=Cc1cc(C(=O)Nc2ccc(N3CCN(c4ccccc4)CC3)nc2)cc(F)c1O [Compound B102, 3-fluoro-5-formyl-4-hydroxy-N-(6-(4-phenylpiperazin-1-yl)pyridin-3-yl)benzamide]	–	–	2	1
